Structures are written as SMILES.

One data set concerns SH-SY5Y cells. Kind of data set: Cell viability of SH-SY5Y cells by MTT (toxicity check). As to conditions: undifferentiated SH-SY5Y, 70 µM of OA, 24 h.
The nature of data set [1]: PAMPA-BBB parallel artificial membrane permeability assay. The format is in vitro ADME, porcine. As to conditions: pig, pH 7.4, PBS:EtOH (70:30) as solvent, mean ± SD of 2 independent experiments, 2 h 30 min at 25 °C, read-out: Pe. Here is the method:
Filter PDVF membrane units (diameter 30 mm, pore size 0.45 μm) from Symta were used to filter the samples. A 96-well plate UV reader (Thermoscientific, Multiskan spectrum) was used for the UV measurements. […] These solutions were filtered. […] Then the donor plate was carefully put on the acceptor plate to form a “sandwich”, which was left undisturbed for 2 h and 30 min at 25 °C. […] During this time the compounds diffused from the donor plate through the brain lipid membrane into the acceptor plate. After incubation, the donor plate was removed. UV plate reader determined the concentration of compounds and commercial drugs in the acceptor and the donor wells. […] 10 quality control compounds (previously mentioned) of known BBB permeability were included in each experiment to validate the analysis set.
Background: PAMPA measures passive passage across an artificial lipid membrane.

For the molecule `C=C1[C@@H](O)[C@@H]2O[C@]3(CC[C@H](/C=C/[C@@H](C)[C@@H]4CC(C)=C[C@@]5(O[C@H](C[C@@](C)(O)C(=O)O)CC[C@H]5O)O4)O3)CC[C@H]2O[C@@H]1[C@@H](O)C[C@H](C)[C@H]1O[C@@]2(CCCCO2)CC[C@H]1C` [OA, okadaic acid], in the data set with SH-SY5Y cells, the “decrease of cell viability” value is recorded as “about 43%”.
In the case of `CN1C(C(=O)Nc2ccccn2)=C(O)c2ccccc2S1(=O)=O` [Piroxicam], the Papp at […] in data set [1] is 0.6 ± 0.8 ×10⁻⁶ cm/s.
As for `CN(C)CCCN1c2ccccc2Sc2ccccc21` [Promazine], the Papp at […] in data set [1] amounted to 12 ± 0.9 ×10⁻⁶ cm/s.

For the origin of these results see PMC10784249 (Natural Products and Bioprospecting, 2024).
